Experimental data taken from publication PMC4493835 (Frontiers in Microbiology, 2015).
Read-outs that look alike come from different tables or passages of the source.

Key:
phospholipase D = type: cell-based, Phytophthora infestans
Pythium ultimum = type: cell-based; details: 50 μM brabantamide A
Phytophthora capsici = type: cell-based; details: 50 μM brabantamide A
[1] = system: Arthrobacter crystallopoietes; details: cited from earlier work
Phytophthora infestans = type: cell-based
fungi = type: cell-based
Staphylococcus aureus = details: ref Reder-Christ et al., 2012; Schmidt et al., 2014; cited from earlier work
Source text: Recently, we discovered Pseudomonas sp. SH-C52, a strain representative of a larger population of Pseudomonads that contributes to the natural suppressiveness of a soil against the fungal plant pathogen Rhizoctonia solani (Mendes et al., [2011]). The gene cluster responsible for the activity of strain SH-C52 against R. solani is encoded by an NRPS, predicted to synthesize a 9-amino-acid chlorinated LP, designated thanamycin (Mendes et al., [2011]). The production and partial structure of thanamycin was resolved by live colony mass spectrometry (Watrous et al., [2012]). Next to thanamycin, stra ...

Rhodotorula pilimanae = details: cited from earlier work
B. megaterium [2] = details: cited from earlier work
B. megaterium [3] = details: cited from earlier work; remark: listed apart in the source
Rhizoctonia solani = details: cited from earlier work
Pseudomonas syringae = type: cell-based; details: inferred from wild type vs thanamycin mutants; data not shown
Method: (§1) For in vitro growth inhibition of fungi and oomycetes, SH-C52 and its derivative strains were, using an overnight culture in KB, spot-inoculated (3 μl) at the periphery of 1/5th strength PDA (pH 7.0) plates. After incubation for 2 days at 25°C, an agar plug (4-mm-diameter) from a freshly grown plate with the target organism was transferred to the center of the 1/5th PDA plate. Inhibition of radial growth of the fungus or the oomycete was monitored from 2 days after incubation up to 2 weeks after incubation, depending on the growth speed of the target organism. For in vitro bacteria and yeast inhibition assays, bacteria and yeast cells were included, after autoclaving and cooling to 45°C, into the 1/5th PDA medium at a concentration of ~10^5 cfu/ml. After solidifying and sufficient drying of the plates, SH-C52 and its derivative strains were, using an overnight culture in KB, spot-inoculated (3 μl) at the periphery of the bacteria or yeast containing plates.

[4] = system: Pectobacterium atrosepticum; type: cell-based; details: inferred from wild type vs thanamycin mutants; data not shown
Method: as §1

With brabantamide the “variation in the phospholipid levels” value (phospholipase D) was “no significant variation”.
For brabantamide A, the “activity against Pythium ultimum” value (Pythium ultimum) is given as “has activity”, the “activity against Phytophthora capsici” value (Phytophthora capsici) is given as “has activity” and the “activity against Arthrobacter crystallopoietes” value [1] is given as “displays activity”. The “concentration at which the increase in PtdBut levels already occurred” value (phospholipase D) was ≤ 1 µM, the other phospholipid levels (phospholipase D) was “not affected” and the “phosphatidylbutanol (PtdBut) levels (indicates stimulation of phospholipase D)” value (phospholipase D; n = 2) was “increase”. For the same substance, the “inhibition of phospholipase A2” value (phospholipase A2) was “no indication was found”, the “concentration above which mycelial growth is inhibited (less dense mycelial mat)” value (Phytophthora infestans) was “above 5 μM” and the “activity against P. infestans” value (Phytophthora infestans; 1% DMSO, 18°C) was “has activity”. For the same substance, the antifungal activity (fungi) was “No antifungal activity” and the “activity against Staphylococcus aureus” value (Staphylococcus aureus) was “displays activity”.
In the case of cormycin, the “activity against the yeast Rhodotorula pilimanae” value (Rhodotorula pilimanae) is given as “active” and the “activity against B. megaterium” value (B. megaterium [2]) is given as “active”.
For corpeptin, the “activity against B. megaterium” value (B. megaterium [3]) is listed as “activity was observed”.
In the case of syringopeptin, the “activity against B. megaterium” value (B. megaterium [3]) is given as “activity was observed”.
For thanamycin, the “antifungal activity against Rhizoctonia solani” value (Rhizoctonia solani) is given as “antifungal activity”, the “activity against Pseudomonas syringae” value (Pseudomonas syringae) is given as “little activity” and the “activity against Pectobacterium atrosepticum” value [4] is given as “little activity”.
